molecular target: T1, glucocorticoid receptor (Homo sapiens, UniProt P04150); assay: Ligand binding assay (GR BIND)
T1 construct: endogenous in cells
T1 sequence (P04150 1-777): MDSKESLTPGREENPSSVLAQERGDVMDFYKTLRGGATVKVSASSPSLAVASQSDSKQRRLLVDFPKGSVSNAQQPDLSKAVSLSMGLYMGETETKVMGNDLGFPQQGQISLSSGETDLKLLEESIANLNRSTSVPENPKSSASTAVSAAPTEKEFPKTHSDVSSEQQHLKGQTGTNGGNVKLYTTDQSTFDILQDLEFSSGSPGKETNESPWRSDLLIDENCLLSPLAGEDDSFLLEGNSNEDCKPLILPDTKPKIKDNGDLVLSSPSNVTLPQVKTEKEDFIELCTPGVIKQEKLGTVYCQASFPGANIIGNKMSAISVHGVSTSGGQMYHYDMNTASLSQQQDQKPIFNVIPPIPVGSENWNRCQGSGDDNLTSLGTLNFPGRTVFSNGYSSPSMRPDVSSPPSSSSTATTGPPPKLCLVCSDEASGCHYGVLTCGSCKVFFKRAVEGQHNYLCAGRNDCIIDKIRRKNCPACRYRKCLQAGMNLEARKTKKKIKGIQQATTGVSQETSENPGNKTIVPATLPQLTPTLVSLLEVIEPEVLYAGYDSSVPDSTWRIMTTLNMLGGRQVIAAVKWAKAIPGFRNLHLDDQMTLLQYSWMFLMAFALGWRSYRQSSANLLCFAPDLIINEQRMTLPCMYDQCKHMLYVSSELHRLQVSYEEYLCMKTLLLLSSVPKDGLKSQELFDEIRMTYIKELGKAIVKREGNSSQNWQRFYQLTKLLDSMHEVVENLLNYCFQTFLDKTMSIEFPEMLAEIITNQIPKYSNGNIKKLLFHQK
Procedure, shortened: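 Cytosol from freeze–thawed cells in TEGM (pH 7.2, 10 mM molybdate) was incubated overnight at 4 °C with compound and [3H]-dexamethasone trace (added as 6 nM solution), 2% EtOH final. Bound ligand was captured on hydroxylapatite, filtered, washed and scintillation counted. Values were calculated with dexamethasone as reference.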

| Compound | Ki [nM] |
| --- | --- |
| C[C@]12Cc3cnn(-c4ccc(F)cc4)c3C=C1CC[C@@H]2CN(CCc1ccccc1F)S(=O)(=O)Cc1ccc(Cl)c(Cl)c1 [Example 111, 1-(3,4-dichlorophenyl)-N-[2-(2-fluorophenyl)ethyl]-N-{[(4αR,5S)-1-(4-fluorophenyl)-4α-methyl-1,4,4α,5,6,7-hexahydrocyclopenta[f]indazol-5-yl]methyl}methanesulfonamide] | 1.8 |
| Cc1noc(C)c1S(=O)(=O)N(CCc1ccccc1O)C[C@H]1CCC2=Cc3c(cnn3-c3ccc(F)cc3)C[C@@]21C [Example 123, N-{[(4αR,5S)-1-(4-fluorophenyl)-4α-methyl-1,4,4α,5,6,7-hexahydrocyclopenta[f]indazol-5-yl]methyl}-N-[2-(2-hydroxyphenyl)ethyl]-3,5-dimethylisoxazole-4-sulfonamide] | 0.9 |
| CCCCS(=O)(=O)N(CCc1ccccc1F)C[C@H]1CCC2=Cc3c(cnn3-c3ccc(F)cc3)C[C@@]21C [Example 102, N-[2-(2-fluorophenyl)ethyl]-N-{[(4αR,5S)-1-(4-fluorophenyl)-4α-methyl-1,4,4α,5,6,7-hexahydrocyclopenta[f]indazol-5-yl]methyl}butane-1-sulfonamide] | 2.6 |
| C[C@]12Cc3cnn(-c4ccc(F)cc4)c3C=C1CC[C@@H]2CN(CC1CCCO1)S(=O)(=O)Cc1cccc(C(F)(F)F)c1 (stereo partly drawn) [Example 110, N-{[(4αR,5S)-1-(4-fluorophenyl)-4α-methyl-1,4,4α,5,6,7-hexahydrocyclopenta[f]indazol-5-yl]methyl}-N-(tetrahydrofuran-2-ylmethyl)-1-[3-(trifluoromethyl)phenyl]methanesulfonamide] | 1.4 |
| C[C@]12Cc3cnn(-c4ccc(F)cc4)c3C=C1CC[C@@H]2CN(CC1CC1)S(=O)(=O)c1cc(C(F)(F)F)ccc1Cl [Example 5, 2-chloro-N-(cyclopropylmethyl)-N-{[(4αR,5S)-1-(4-fluorophenyl)-4α-methyl-1,4,4α,5,6,7-hexahydrocyclopenta[f]indazol-5-yl]methyl}-5-(trifluoromethyl)benzenesulfonamide] | 1 |
| C[C@]12Cc3cnn(-c4ccc(F)cc4)c3C=C1CC[C@@H]2CN(CCc1ccccc1F)S(=O)(=O)CCN1C(=O)c2ccccc2C1=O [Example 121, 2-(1,3-dioxo-1,3-dihydro-2H-isoindol-2-yl)-N-[2-(2-fluorophenyl)ethyl]-N-{[(4αR,5S)-1-(4-fluorophenyl)-4α-methyl-1,4,4α,5,6,7-hexahydrocyclopenta[f]indazol-5-yl]methyl}ethanesulfonamide] | 5.3 |
| COCCN(C[C@H]1CCC2=Cc3c(cnn3-c3ccc(F)cc3)C[C@@]21C)S(C)(=O)=O [Example 96, N-{[(4αR,5S)-1-(4-fluorophenyl)-4α-methyl-1,4,4α,5,6,7-hexahydrocyclopenta[f]indazol-5-yl]methyl}-N-(2-methoxyethyl)methanesulfonamide] | 1.1 |
| CCCS(=O)(=O)N(CCOC)C[C@H]1CCC2=Cc3c(cnn3-c3ccc(F)cc3)C[C@@]21C [Example 95, N-{[(4αR,5S)-1-(4-fluorophenyl)-4α-methyl-1,4,4α,5,6,7-hexahydrocyclopenta[f]indazol-5-yl]methyl}-N-(2-methoxyethyl)propane-1-sulfonamide] | 5.2 |
| COCCN(C[C@H]1CCC2=Cc3c(cnn3-c3ccc(F)cc3)C[C@@]21C)S(=O)(=O)CCN1C(=O)c2ccccc2C1=O [Example 118, 2-(1,3-dioxo-1,3-dihydro-2H-isoindol-2-yl)-N-{[(4αR,5S)-1-(4-fluorophenyl)-4α-methyl-1,4,4α,5,6,7-hexahydrocyclopenta[f]indazol-5-yl]methyl}-N-(2-methoxyethyl)ethanesulfonamide] | 3.8 |
| C[C@]12Cc3cnn(-c4ccc(F)cc4)c3C=C1CC[C@@H]2CN(CCc1ccccc1F)S(=O)(=O)c1ccccc1C(F)(F)F [Example 99, N-[2-(2-fluorophenyl)ethyl]-N-{[(4αR,5S)-1-(4-fluorophenyl)-4α-methyl-1,4,4α,5,6,7-hexahydrocyclopenta[f]indazol-5-yl]methyl}-2-(trifluoromethyl)benzenesulfonamide] | 1.4 |
| C[C@]12Cc3cnn(-c4ccc(F)cc4)c3C=C1CC[C@@H]2CN(CCc1ccccc1F)S(=O)(=O)c1ccccc1Cl [Example 100, 2-chloro-N-[2-(2-fluorophenyl)ethyl]-N-{[(4αR,5S)-1-(4-fluorophenyl)-4α-methyl-1,4,4α,5,6,7-hexahydrocyclopenta[f]indazol-5-yl]methyl}benzenesulfonamide] | 2.1 |
| C[C@]12Cc3cnn(-c4ccc(F)cc4)c3C=C1CC[C@@H]2CN(CC1CC1)S(=O)(=O)c1ccc(-c2ccccc2)cc1 [Example 10, N-(cyclopropylmethyl)-N-{[(4αR,5S)-1-(4-fluorophenyl)-4α-methyl-1,4,4α,5,6,7-hexahydrocyclopenta[f]indazol-5-yl]methyl}biphenyl-4-sulfonamide] | 0.7 |
| CC(C)CS(=O)(=O)N(CCc1ccccc1F)C[C@H]1CCC2=Cc3c(cnn3-c3ccc(F)cc3)C[C@@]21C [Example 103, N-[2-(2-fluorophenyl)ethyl]-N-{[(4αR,5S)-1-(4-fluorophenyl)-4α-methyl-1,4,4α,5,6,7-hexahydrocyclopenta[f]indazol-5-yl]methyl}-2-methylpropane-1-sulfonamide] | 1.7 |

Second part, the compound after the results:

| Ki [nM] | Compound |
| --- | --- |
| 1 | C[C@]12Cc3cnn(-c4ccc(F)cc4)c3C=C1CC[C@@H]2CN(CC(OS(=O)(=O)CC(F)(F)F)c1ccccn1)S(=O)(=O)CC(F)(F)F (stereo partly drawn) [Example 145, 2-{{[(4αR,5S)-1-(4-fluorophenyl)-4α-methyl-1,4,4α,5,6,7-hexahydrocyclopenta[f]indazol-5-yl]methyl}[(2,2,2-trifluoroethyl)sulfonyl]amino}-1-pyridin-2-ylethyl 2,2,2-trifluoroethanesulfonate] |
| 5.5 | C[C@]12Cc3cnn(-c4ccc(F)cc4)c3C=C1CC[C@@H]2CN(Cc1cccnn1)S(=O)(=O)CC(F)(F)F [Example 132, 2,2,2-trifluoro-N-{[(4αR,5S)-1-(4-fluorophenyl)-4α-methyl-1,4,4α,5,6,7-hexahydrocyclopenta[f]indazol-5-yl]methyl}-N-(pyridazin-3-ylmethyl)ethanesulfonamide] |
| 3.4 | COC(=O)c1cc(Cl)ccc1CCN(C[C@H]1CCC2=Cc3c(cnn3-c3ccc(F)cc3)C[C@@]21C)S(=O)(=O)CC(F)(F)F [Example 160, methyl 5-chloro-2-(2-{{[(4αR,5S)-1-(4-fluorophenyl)-4α-methyl-1,4,4α,5,6,7-hexahydrocyclopenta[f]indazol-5-yl]methyl}[(2,2,2-trifluoroethyl)sulfonyl]amino}ethyl)benzoate] |
| 2.5 | C[C@]12Cc3cnn(-c4ccc(F)cc4)c3C=C1CC[C@@H]2CN(CC1(OS(=O)(=O)CC(F)(F)F)CC1)S(=O)(=O)CC(F)(F)F [Example 136, 1-({{[(4αR,5S)-1-(4-fluorophenyl)-4α-methyl-1,4,4α,5,6,7-hexahydrocyclopenta[f]indazol-5-yl]methyl}[(2,2,2-trifluoroethyl)sulfonyl]amino}methyl)cyclopropyl 2,2,2-trifluoroethanesulfonate] |
| 1.7 | C[C@]12Cc3cnn(-c4ccc(F)cc4)c3C=C1CC[C@@H]2CN(CCc1ccccc1CO)S(=O)(=O)CC(F)(F)F [Example 163, 2,2,2-trifluoro-N-{[(4αR,5S)-1-(4-fluorophenyl)-4α-methyl-1,4,4α,5,6,7-hexahydrocyclopenta[f]indazol-5-yl]methyl}-N-{2-[2-(hydroxymethyl)phenyl]ethyl}ethanesulfonamide] |
| 1.5 | Cc1noc(C)c1S(=O)(=O)N(C[C@H]1CCC2=Cc3c(cnn3-c3ccc(F)cc3)C[C@@]21C)C[C@@H](C)O [Example 168, N-{[(4αR,5S)-1-(4-fluorophenyl)-4α-methyl-1,4,4α,5,6,7-hexahydrocyclopenta[f]indazol-5-yl]methyl}-N-[(2R)-2-hydroxypropyl]-3,5-dimethylisoxazole-4-sulfonamide] |
| 3.2 | C[C@]12Cc3cnn(-c4ccc(F)cc4)c3C=C1CC[C@@H]2CN(CC(O)C(F)(F)F)S(=O)(=O)Cc1ccccc1C(=O)O (stereo partly drawn) [Example 164, 2-({[{[(4αR,5S)-1-(4-fluorophenyl)-4α-methyl-1,4,4α,5,6,7-hexahydrocyclopenta[f]indazol-5-yl]methyl}(3,3,3-trifluoro-2-hydroxypropyl)amino]sulfonyl}methyl)benzoic acid] |
| 2.5 | Cn1cc(S(=O)(=O)N(CC(O)C(F)F)C[C@H]2CCC3=Cc4c(cnn4-c4ccc(F)cc4)C[C@@]32C)c(C(F)(F)F)n1 (stereo partly drawn) [Example 156, N-(3,3-difluoro-2-hydroxypropyl)-N-{[(4αR,5S)-1-(4-fluorophenyl)-4α-methyl-1,4,4α,5,6,7-hexahydrocyclopenta[f]indazol-5-yl]methyl}-1-methyl-3-(trifluoromethyl)-1H-pyrazole-4-sulfonamide] |

Reference: patent US8299048B2, “Hexahydrocyclopentyl[f]indazole sulfonamides and derivatives thereof as selective glucocorticoid receptor modulators” (Merck Sharp & Dohme Corp., priority 2008, dated 2012)
